Laboratory results as given in PMC11224556, “Next-generation of BBQ analogues that selectively target breast cancer” (Frontiers in Chemistry, 2024).

Columns and labels:
[1] = system: MCF10A normal breast cells; assay: MTT growth inhibition with CYP1 (αNF) or SULT1A1 (quercetin) inhibitor; assay type: cell-based, human; details: 3 and 5 at 0.1 µM, αNF 10 µM, quercetin 5 µM, 72 h (Supp Figure 1)
Experimental: This analysis confirms that both CYP1 and SULT1A1, activity is needed to induce the growth inhibitory effect of the BBQ analogue.
Cells in logarithmic growth were transferred to 96-well plates. Cytotoxicity was determined by plating cells in duplicate in 100 μL medium at a density of 2,500–4,000 cells/well in 96 well plates. On day 0, (24 h after plating) when the cells were in logarithmic growth 100 μL medium with or without the test agent was added to each well. After 72 h drug exposure growth inhibitory effects were evaluated using the MTT (3-[4,5-dimethylthiazol-2-yl]-2,5-diphenyltetrazolium bromide) assay with absorbance read at 540 nm. An eight-point dose response curve was produced, using MS Excel software. From these dose-response curves, the GI50 value was calculated, representing the drug concentration at which cell growth is 50% inhibited based on the difference between the optical density values on day 0 and those at the end of drug exposure ([Bradshaw et al., 2008]; [Zhang et al., 2009]). Each data point was conducted in duplicate and the mean ± S.E.M. calculated from four to five replicates (n = 4 or 5), which were performed on separate occasions and separate cell line passages. Where shown, significant test results were determined using T-test analysis at p < 0.01 and p < 0.05 with a two tail distribution.
Supp Figure 1. CYP1 and SULT1A1 inhibition ameliorates the effect of 3 and 5. Growth inhibition (72 h, MTT assay) of 3 and 5 (0.1 µM) in the presence of the CYP1 family inhibitor, α-naphthoflavone (αNF, 10 µM) and SULT1A1 inhibitor, quercetin (qu, 5 µM) in (A) MDA-MB-468 breast cancer cells and (B) MCF10A normal breast cells. Significant differences are at the P < 0.01 ** level, using a paired T-test with a two-tailed distribution.

AhR = molecular target: T1, AhR (Homo sapiens, UniProt P35869); assay: AhR transcription reporter assay (HT29-Lucia AhR cells); assay type: cell-based; details: 24 h
T1 construct: This cell line stably expresses the secreted Lucia luciferase reporter gene under the control of a minimal promoter; host or cells: HT29-Lucia AhR reporter cells
T1 sequence (P35869 11-848): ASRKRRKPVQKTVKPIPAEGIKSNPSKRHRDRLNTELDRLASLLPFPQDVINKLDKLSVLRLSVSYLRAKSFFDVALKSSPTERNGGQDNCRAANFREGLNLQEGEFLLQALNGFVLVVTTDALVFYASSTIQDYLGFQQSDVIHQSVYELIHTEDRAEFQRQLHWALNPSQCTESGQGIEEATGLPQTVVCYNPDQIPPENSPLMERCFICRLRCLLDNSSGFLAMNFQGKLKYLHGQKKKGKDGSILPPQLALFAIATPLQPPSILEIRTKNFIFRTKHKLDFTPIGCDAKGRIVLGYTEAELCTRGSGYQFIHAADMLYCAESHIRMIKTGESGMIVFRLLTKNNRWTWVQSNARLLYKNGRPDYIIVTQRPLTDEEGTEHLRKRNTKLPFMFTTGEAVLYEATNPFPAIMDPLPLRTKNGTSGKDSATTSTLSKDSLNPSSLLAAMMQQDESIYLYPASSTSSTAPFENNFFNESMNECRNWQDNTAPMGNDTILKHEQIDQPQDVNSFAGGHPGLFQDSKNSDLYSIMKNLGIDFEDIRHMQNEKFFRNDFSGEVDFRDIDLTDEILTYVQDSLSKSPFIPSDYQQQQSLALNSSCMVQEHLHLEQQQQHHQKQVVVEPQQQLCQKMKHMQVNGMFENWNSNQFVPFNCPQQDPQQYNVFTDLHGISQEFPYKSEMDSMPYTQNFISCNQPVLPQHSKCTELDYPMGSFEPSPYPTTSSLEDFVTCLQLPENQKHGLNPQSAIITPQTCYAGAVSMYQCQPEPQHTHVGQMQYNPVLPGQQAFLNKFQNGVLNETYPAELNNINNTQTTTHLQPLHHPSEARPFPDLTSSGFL
From the text: Our previous studies have shown that the activity of NAP-6 (2) and 10-Cl-BBQ (3) required the activation of the AhR pathway and the induction of CYP1 family of phase I metabolising enzymes ([Gilbert et al., 2020]; [Baker et al., 2021a]). Therefore, we sought to determine the activation of AhR using a stable AhR reporter assay in HT29-Lucia™ AhR cells, in the presence of each BBQ analogue (Figure 3). Activation of the AhR was indicated by enhanced luminescence caused by the translocation of the AhR to the nucleus of the cell and interaction with the xenobiotic response elements imbedded in the luciferase gene.
Stock solutions were prepared as follows and stored as 20 mM DMSO solutions at −20 °C. All cell lines were cultured in a humidified atmosphere 5% CO2 at 37 °C. The cancer cell lines were maintained in Dulbecco’s modified Eagle’s medium (DMEM) (Trace Biosciences, Australia) supplemented with 10% foetal bovine serum (FBS), 10 mM sodium bicarbonate, penicillin (100 IU/mL), streptomycin (100 μg/mL), and glutamine (4 mM). The non-cancer MCF10A cell line was cultured in DMEM:F12 (1:1) cell culture media, 5% heat inactivated horse serum, supplemented with penicillin (50 IU/mL), streptomycin (50 μg/mL), 20 mM Hepes, L-glutamine (2 mM), epidermal growth factor (20 ng/mL), hydrocortisone (500 ng/mL), cholera toxin (100 ng/mL), and insulin (10 μg/mL). The AhR reporter cell line HT29-Lucia™ (Invivogen, United States) was maintained in DMEM supplemented with 10% heat inactivated FBS, L-glutamine (2 mM), penicillin (100 IU/mL), streptomycin (100 μg/mL), 100 μg/mL Normocin™, and 100 μg/mL of the selective antibiotic Zeocin™. All cell lines were purchased from the American Type Culture Collection (ATCC), except for A2780 and A431 which were from the European Collection of Authenticated Cell Cultures (ECACC), and SJ-G2 cell line which was from Dr Mary Danks, St Jude Children’s Research hospital, Memphis, TN.
The activity of the AhR signalling pathway was measured using the stably transfected AhR cell line, HT29-Lucia™ (Invivogen, United States). This cell line stably expresses the secreted Lucia luciferase reporter gene under the control of a minimal promoter coupled with the human CYP1A1 gene entire regulatory sequence, containing six DREs. The Lucia luciferase reporter protein is readily measurable in the cell culture supernatant using QUANTI-Luc™. For the determination of AhR activity, 4 × 10^4 cells in 180 μL was plated into each well of a 96 well micro-titre plate in the absence of antibiotics and allowed to culture for 24 h prior to the addition of test compounds in a volume of 20 μL. At the indicated time, 20 μL of cell supernatant was transferred to a white luminometer plate and 50 µL of QUANTI-Luc was added immediately prior to reading the luminescence using a GloMax Explorer Luminescence Plate Reader. The promoter activity was conducted in duplicate and the values expressed as fold-change relative to DMSO (0.1%) treated cells. The AhR ligand, FICZ (6-formylindolo[3,2-b]carbazole) and AhR inhibitor CH223191 were included for study as positive and negative controls, respectively. […] Results are presented as the mean ± standard error of the mean (SEM) of analysis conducted in duplicate and repeated on three separate occasions.

CYP1A1 mRNA = assay: Gene expression analysis (qPCR) in MDA-MB-468 cells; assay type: cell-based, human; details: 1.0 μM, 6 h
Experimental: (§1) These analogues were specifically chosen because they were synthesised without the production of regioisomers, their structural differences are small while their biological differences are large, c.f. […] Neither analogue altered the expression of SULT1A1 (Figure 4D).
(§2) Gene expression was examined in MDA-MB-468 cells following 6 h treatment. Total RNA was extracted using the RNeasy Mini Kit (Qiagen) according to the manufacturer’s instructions. One µg of RNA was reverse transcribed using the QuanitTect Reverse Transcription Kit (Qiagen) according to the manufacturer’s instructions. Rotor-Gene SYBR Green PCR Kit (Qiagen) was used to perform qPCR on a Rotor-Gene 3,000 Thermo-Cycler Instrument using β2-microglobulin as a housekeeping gene (Qiagen). The primer sequences were purchased from Qiagen as follows: AhR (QT02422938), CYP1A1 (QT00012341), CYP1B1 (QT00209496), SULT1A1 (QT01665489), and β2M (QT00088935). HotStar Taq activation (95 °C for 5 min) was followed by 40 cycles of denaturation (95 °C for 5 s), and annealing/extension (60 °C for 10 s). The comparative Ct value method was used for data analysis. Results are presented as the mean ± standard error of the mean (SEM) of analysis conducted in duplicate and repeated on two separate occasions. Significant test results were determined using T-test analysis at p < 0.01 with a two tail distribution.

CYP1B1 mRNA = assay: as above; assay type: cell-based, human; details: 1.0 μM, 6 h
Experimental: as §1, §2

[2] = Solubility in the compound testing media; assay type: physicochemical
[3] = system: broad panel of cancer cell lines and non-cancer breast cell line MCF10A; details: ref Gilbert et al., 2017; Gilbert et al., 2020; cited from earlier work

In the case of `O=c1c(O)c(-c2ccc(O)c(O)c2)oc2cc(O)cc(O)c12` [quercetin, reference compound], the “effect on growth in normal MCF10A cells” value [1] is reported as “Neither 3, 5, αNF, or quercetin affected growth”.
For `O=c1cc(-c2ccccc2)oc2c1ccc1ccccc12` [α-naphthoflavone, reference compound], the “effect on growth in normal MCF10A cells” value [1] was “Neither 3, 5, αNF, or quercetin affected growth”.
For `Cc1ccccc1N=Nc1ccc(NC(=O)c2ccnn2C)c(C)c1` [CH223191, reference compound], the “AhR activation, Fold Reporter Induction” value (AhR; 2.5 μM, negative control) was 0.7 fold.
With “6-formylindolo[3,2-b]carbazole [FICZ, reference compound]” the “AhR activation, Fold Reporter Induction” value (AhR; 0.5 μM, positive control) was 2.7 fold, the “CYP1A1 Fold change (mRNA vs DMSO control)” value (CYP1A1 mRNA) was 19 fold and the “CYP1B1 Fold change (mRNA vs DMSO control)” value (CYP1B1 mRNA) was 3.7 fold.
For `O=c1c2cccc3cccc(c32)c2nc3c(Cl)cc(Cl)cc3n12` [Compound 6, 10,12-Dichloro-7H-benzo[de]benzo[4,5]imidazo[2,1-a]isoquinolin-7-one], the “solubility in the compound testing media” value [2] was “insoluble” and the melting point was 292 to 294 °C.
For `N#C/C(=C\c1ccc[nH]1)c1ccc(Cl)c(Cl)c1` [Compound 1, (Z)-2-(3,4-dichlorophenyl)-3-(1H-pyrrol-2-yl)acrylonitrile], the “selective targeting of certain breast cancer cell lines compared with normal breast cells or other tumour types (fold)” value [3] is given as “more than 500 fold”.
